Read-outs that look alike come from different tables or passages of the source.
Legend:
[1] = test system: patients with advanced NSCLC; test: Exploratory biomarker analyses from OAM4558g (MET FISH, mRNA by qRT-PCR) with outcome; format: in vivo, human
Experimental: MET and EGFR gene copy numbers were evaluated by fluorescent in situ hybridization (FISH). […] True MET amplification was defined as tight gene cluster of greater than or equal to 15 copies of MET in greater than or equal to 10% of tumor cells or a MET/CEP7 ratio of greater than or equal to 2.
MET, HGF, EGFR, AREG, and EREG mRNA expression was evaluated on RNA extracted from macro-dissected tumor tissue slides using the Fluidigm platform. Transcript levels were normalized to the mean of two reference genes that are stably expressed in lung tissue and results are expressed as normalized expression values (2^−ΔCt).
Exploratory tumor biomarkers related to c-Met and/or EGFR signaling were measured by FISH, qRT-PCR or various mutation detection techniques from archival tumor tissue specimens. Plasma HGF levels were measured by ELISA. Analyses with outcome were carried out independent of Met clinical diagnostic status.

[2] = test system: patients with second and third-line NSCLC; test: Phase II trial of MetMAb plus erlotinib versus erlotinib plus placebo: safety, disposition and exposure
Description: (§1) This study was a Phase II, double-blind, randomized, multicenter trial designed to evaluate the preliminary activity and safety of treatment with MetMAb plus Erlotinib versus Erlotinib plus placebo in second and third-line NSCLC. […] Once 120 patients, comprising the “overall” population were enrolled, eligibility was restricted to patients with squamous cell carcinoma (SCC) histology to ensure that a total of approximately 80 patients with SCC are enrolled in the study. Randomization for the first 120 patients comprising the “overall” population was stratified by smoking status (non-smokers and smokers who have quit more than 10 years ago versus current smokers and smokers who have quit less than 10 years ago), performance status and histology, and randomization for the next 50 SCC patients will be stratified by smoking status and performance status. Treatment in each arm was continued until progression of disease, unacceptable toxicity, or any other discontinuation criterion was met. Upon disease progression, patients randomized to the Erlotinib plus placebo arm were given the option to receive MetMAb (in addition to continuing Erlotinib), provided they continue to meet eligibility criteria. Safety data collected from this cross-over was summarized for hypothesis generating purposes.
(§2) Primary and secondary efficacy analyses included all randomized patients, with patients allocated to the treatment arm to which they were randomized. Safety analyses included all randomized patients who received at least one dose of study treatment, with patients allocated to the treatment arm associated with the regimen actually received. Demographic and baseline characteristics (e.g. age and sex) were summarized using means, standard deviations, medians, and ranges for continuous variables and proportions for categorical variables, as appropriate. Summaries were presented by overall patient population and by treatment arm. The baselines value of any variable were defined as the last available value prior to the first administration of study treatment.
(§3) The dose of MetMAb was 15 mg/kg intravenously on Day 1 of a 3-week cycle. The weight at screening was used to determine the actual dose of MetMAb. The dose of erlotinib was 150 mg by mouth each day of a 3-week cycle. Dosage level for erlotinib may have been reduced to 100 mg (first reduction) or 50 mg (second reduction) for toxicity likely attributable to erlotinib (e.g., rash, diarrhea).

[3] = test system: NSCLC patients; conditions: cited from earlier work
[4] = test system: patients with second and third-line NSCLC; conditions: in vivo
Description: as §1, §2, §3

[5] = test system: patients with second and third-line NSCLC; conditions: for Difference in ORR, % (95% CI): Erlotinib + MetMAb vs Erlotinib + Placebo
Description: The original protocol for this study was described, e.g., in WO2010/045345; however, the study was later modified to add enrollment of 50 patients with squamous cell histology as follows. […] During this study, patients and treating individuals, including the investigators, were blinded to the treatment assignment of study drug (MetMAb or placebo).
During the study, data on tumor measurement and survival status were collected for evaluation of PFS, overall survival (OS) and overall response rate (ORR). CT scans were obtained at baseline and for the first four cycles at an approximately every 6 week intervals (i.e., every two three-week cycles of MetMAb/placebo). After four cycles, routine CT scans were performed approximately every 9 weeks (every 3 cycles of MetMAb/placebo). FDG-PET imaging is obtained at baseline and at Day 10-14 of Cycle 1. During the course of this study, an Image Reading facility (IRF) evaluated FDG-PET results and determined whether FDG-PET imaging should continue in all participating sites or whether FDG-PET imaging should be confined to a few sites based on data received.
The primary outcome measure of this study was progression free survival (PFS) defined by the Response Evaluation Criteria In Solid Tumors (RECIST)) 1.0 or death from any cause within thirty days of the last treatment.
(a) overall response (OR) (partial response plus complete response) as determined using RECIST 1.0 in Met positive tumors and overall; and
(c) Overall survival (time from randomization until death from any cause within 30 days of the last study treatment).
Kaplan-Meier methodology was used to estimate the median PFS for each treatment arm. The stratification factors were determined by the […] (CRF) data, not by data collected by the interactive voice […] system at the time of randomization unless the CRF data was missing. Estimation of the hazard ration (i.e., the magnitude of the treatment effect and the 95% confidence interval) was determined using a stratified Cox regression model with an indicator variable for MetMAb treatment. The same analysis methods as those described for PFS in “overall” population patients were applied to patients with met positive tumors and to patients with SCC histology. All deaths from any cause within 30 days of the last treatment were included as PFS events. Objective response was defined as a complete or partial response determined on two consecutive occasions greater than or equal to four weeks apart. Patients without a post-baseline tumor assessment were considered non-responders. An estimate of the objective response rate and 95% confidence interval (Blyth-Still-Casella) was calculated for each treatment arm. Confidence intervals for the difference in tumor response rate (Satnes and Snell 1980; Berger and Boos 1994) were calculated. For patients with an objective response, duration of objective response was defined as the time from the initial response to disease progression or death from any cause within 30 days of the last treatment. Methods for handling censoring and for analysis were the same as described for PFS. All secondary efficacy endpoints were assessed for patients with met positive tumors, patients with SCC histology and by “overall” patient population.

[6] = Met Diagnostic-Negative, data cut-off Nov. 15, 2010
[7] = Met Diagnostic-Positive, data cut-off Nov. 15, 2010
[8] = Met High, data cut-off Jun. 8, 2010
[9] = Met Low, data cut-off Jun. 8, 2010
[10] = all patients, data cut-off Jun. 8, 2010
[11] = Met diagnostic negative patients, MetMAb+erlotinib vs erlotinib and placebo, data cut-off Nov. 15, 2010
[12] = Met diagnostic positive patients, MetMAb plus erlotinib vs placebo+erlotinib, data cut-off Nov. 15, 2010
[13] = Met diagnostic positive patients, data cut-off Nov. 15, 2010
[14] = Met high patients, MetMAb plus erlotinib vs placebo plus erlotinib, data cut-off Jun. 8, 2010
[15] = Met high patients, data cut-off Jun. 8, 2010
[16] = Met low patients, ME vs erlotinib and placebo, data cut-off Jun. 8, 2010
[17] = Overall, data cut-off Jun. 8, 2010
[18] = overall (ITT) population, MetMAb plus erlotinib vs placebo plus erlotinib, data cut-off Jun. 8, 2010
[19] = overall (ITT) population, MetMAb plus erlotinib vs placebo plus erlotinib, data cut-off Nov. 15, 2010

MetMAb: known recombinant, humanized, monovalent monoclonal antibody directed against c-met
OS HR ([1]; EGFR-wildtype patients that were Met diagnostic positive and MET FISH negative): 0.45
outcome HR ([1]; EGFR-wildtype patients, MET FISH positive at lower threshold ≧4 copies): 0.89
frequency of peripheral edema in MetMAb treated arms ([2]; both Met diagnostic positive and diagnostic negative populations, data cut-off Nov. 15, 2010): higher

bevacizumab: anti-VEGF antibody
bleeding risk ([3]; in vivo): increased bleeding risk

Nc1nc2[nH]cc(CCc3ccc(C(=O)N[C@@H](CCC(=O)O)C(=O)O)cc3)c2c(=O)[nH]1 [Pemtrexed]
efficacy in SCC ([3]; NSCLC SCC, Scagliotti et al, 2008): relatively lower efficacy
activity in adenocarcinoma ([3]; NSCLC adenocarcinoma, Scagliotti et al, 2008): active

Erlotinib + MetMAb: MetMAb (15 mg/kg IV q3wks) plus erlotinib treatment, interchangeably termed ME
All adverse events: Dyspnea [4]: 7 (20.0) n (%)
Grade 3-5 adverse events: Pneumonia [4]: 1 (2.9) n (%)
Patient disposition: Adverse events [4]: 7 (10.9) n (%)
Safety: tolerability [4]: well-tolerated
outcome HR ([1]; AREG mRNA High, MetMAb + Erlotinib vs Placebo + Erlotinib): 0.77
outcome Median (mo) ([1]; AREG mRNA Low (median 7.11)): 6.5 mo
outcome HR ([1]; AREG mRNA Low, MetMAb + Erlotinib vs Placebo + Erlotinib): 1.31
outcome Median (mo) ([1]; EGFR mRNA High (median 7.75)): 7.1 mo
outcome HR ([1]; EGFR mRNA High, MetMAb + Erlotinib vs Placebo + Erlotinib): 1.1
outcome Median (mo) ([1]; EGFR mRNA Low (median 7.75)): 11.7 mo
outcome HR ([1]; EGFR mRNA Low, MetMAb + Erlotinib vs Placebo + Erlotinib): 0.88
outcome Median (mo) ([1]; EREG mRNA High (median 0.26)): 10.2 mo
outcome HR ([1]; EREG mRNA High, MetMAb + Erlotinib vs Placebo + Erlotinib): 0.67
outcome Median (mo) ([1]; EREG mRNA Low (median 0.26)): 8.1 mo
outcome HR ([1]; EREG mRNA Low, MetMAb + Erlotinib vs Placebo + Erlotinib): 1.34
outcome Median (mo) ([1]; MET mRNA High (median 3.16)): 8.7 mo
outcome HR ([1]; MET mRNA High, MetMAb + Erlotinib vs Placebo + Erlotinib): 0.59
outcome Median (mo) ([1]; MET mRNA Low (median 3.16)): 11.7 mo
outcome HR ([1]; MET mRNA Low, MetMAb + Erlotinib vs Placebo + Erlotinib): 1.48
Summary of safety data: Adverse events leading to death ([2]; Met Diagnostic Negative, data cut-off Nov. 15, 2010): 3 (9.7) No. of patients (%)
Summary of safety data: Adverse events leading to death ([2]; Met Diagnostic Positive, data cut-off Nov. 15, 2010): 1 (2.9) No. of patients (%)
Patient disposition: Death [2, 6]: 2 (6.5) No. of patients (%)
Patient disposition: Disease progression [2, 6]: 22 (71.0) No. of patients (%)
Patient disposition: Death [2, 7]: 0 No. of patients (%)
Patient disposition: Disease progression [2, 7]: 18 (51.4) No. of patients (%)
Summary of safety: AEs leading to death [2, 8]: 1 (2.9) n (%)
All adverse events: Dyspnea [2, 9]: 4 (14.8) n (%)
Summary of safety: AEs leading to death [2, 9]: 4 (14.8) n (%)
Grade 3-5 adverse events: Pneumonia ([2]; Met low, data cut-off Jun. 8, 2010): 4 (14.8) n (%)
Patient disposition: Deaths [2, 10]: 2 (3.1) n (%)
Patient disposition: Disease progression [2, 10]: 34 (53.1) n (%)
overall survival treatment effect HR (unstratified Cox model) ([5]; 10% Met diagnostic positive and not Met diagnostic positive using the 50% cutoff): 2.83
overall survival treatment effect HR (unstratified Cox model) ([5]; 10% Met diagnostic positive patients (>=10% tumor cells IHC 2+ or 3+)): 0.52
overall survival treatment effect HR (unstratified Cox model) ([5]; 90% Met diagnostic positive patients): 0.30
Difference in ORR, % (95% CI) [5, 8]: 5.2 (−6.0-16.5) %
# pts PD by RECIST [5, 8]: n = 17
No. of patients with OR (%) [5, 8]: 3 (8.6) No. of patients (%)
Pattern of progression: PD by new lesions [5, 8]: 9 (52.9)
Pattern of progression: PD on target lesions [5, 8]: 11 (64.7)
PFS benefit by subgroup ([5]; Met IHC status 0 and 1 patients, data cut-off Jun. 8, 2010): did not benefit
PFS benefit by subgroup ([5]; Met IHC status 3 and 2 patients, data cut-off Jun. 8, 2010): showed benefit
# pts PD by RECIST [5, 9]: n = 15
Pattern of progression: PD by new lesions [5, 9]: 7 (46.7)
Pattern of progression: PD on target lesions [5, 9]: 11 (73.3)
OS benefit by subgroup ([5]; Met diagnostic negative IHC status 0 and 1 patients, data cut-off Nov. 15, 2010): did not benefit
OS HR [5, 11]: 1.78
PFS HR [5, 11]: 1.82
OS benefit by subgroup ([5]; Met diagnostic positive IHC status 3 and 2 patients, data cut-off Nov. 15, 2010): showed benefit
OS Hazard ratio (HR) [5, 12]: 0.37
PFS Hazard ratio (HR) [5, 12]: 0.53
median OS [5, 13]: 12.6 months
median PFS [5, 13]: 2.9 months
overall survival treatment effect HR (unstratified Cox model) ([5]; Met diagnostic positive using 50% cutoff): 0.38
overall survival treatment effect HR (unstratified Cox model) ([5]; Met diagnostic positive using 50% cutoff and not 90% Met diagnostic positive): 0.75
OS benefit by subgroup ([5]; Met high IHC status 3 and 2 patients, data cut-off Jun. 8, 2010): showed benefit
OS Hazard ratio (HR) [5, 14]: 0.55
PFS Hazard ratio (HR) [5, 14]: 0.56
median OS [5, 15]: 7.7 weeks
median PFS [5, 15]: 12.4 weeks
OS HR ([5]; Met high population excluding patients with known EGFR mutations, relative to placebo+erlotinib, data cut-off Jun. 8, 2010): 0.55
OS benefit by subgroup ([5]; Met low IHC status 0 and 1 patients, data cut-off Jun. 8, 2010): did not benefit
OS HR [5, 16]: 3.26
PFS HR [5, 16]: 2.01
patients progressed by the first assessment (CAT scan at week 6) ([5]; Met low patients, data cut-off Jun. 8, 2010): ~70%
patients progressed by the first assessment (CAT scan at week 6) ([5]; Met low patients, data cut-off Nov. 15, 2010): ~70%
Difference in ORR, % (95% CI) [5, 17]: 1.6 (−6.3-9.4) %
No. of patients with OR (%) [5, 17]: 4 (6.3) No. of patients (%)
OS HR [5, 18]: 1.09
PFS HR [5, 18]: 1.09
OS Hazard ratio [5, 19]: 0.8
PFS Hazard ratio [5, 19]: 1.09
Objective response rate ([5]; overall population, data cut-off Jun. 8, 2010): 6.3%
